Laboratory results from ChEMBL document CHEMBL1201862, “PubChem BioAssay data set” (2004).
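These data come from cells grown in 96-well plates and exposed to compound for 48 hours at five concentrations. GI50 = concentration required for 50% inhibition of growth.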 Activity calls are given as the source filed them. No stated cut-off is given here; in the data, active = GI50 up to about 1.1 µM and inactive = higher.

How the values were obtained:
Assay in all cases: inhibition of tumour cell growth, NCI panel, 48 h
SR = system: SR
OVCAR-8 = system: OVCAR-8
UACC-257 = system: UACC-257
NCI-H226 = system: NCI-H226
SK-MEL-28 = system: SK-MEL-28
OVCAR-3 = system: OVCAR-3
SN12C = system: SN12C
786-0 = system: 786-0
SNB-19 = system: SNB-19
UO-31 = system: UO-31
T47D = system: T47D
SK-OV-3 = system: SK-OV-3
RPMI-8226 = system: RPMI-8226
Hs-578T = system: Hs-578T
IGROV-1 = system: IGROV-1
SK-MEL-2 = system: SK-MEL-2
HCC 2998 = system: HCC 2998
MDA-MB-231 = system: MDA-MB-231
CAKI-1 = system: CAKI-1
MCF7 = system: MCF7

Measured: GI50

COC(=O)[C@]12CC[C@H]3CN(C(=O)OCc4ccccc4)[C@H]([C@H]31)[C@H](c1ccco1)N2S(=O)(=O)c1ccc(C)cc1
inactive: SR 13.5 µM | OVCAR-8 28.9 µM | UACC-257 20.3 µM | NCI-H226 27.5 µM | SK-MEL-28 39.2 µM | OVCAR-3 19.1 µM | SN12C 18.5 µM | 786-0 17.5 µM | SNB-19 34 µM | UO-31 20.9 µM | T47D 27.6 µM | SK-OV-3 52.1 µM | RPMI-8226 11.6 µM | Hs-578T 73.5 µM | IGROV-1 20.5 µM | SK-MEL-2 20.7 µM | HCC 2998 19.5 µM | MDA-MB-231 35 µM | CAKI-1 28.8 µM | MCF7 17.5 µM

O=c1oc2ccc3ccccc3c2cc1-c1nc2ccccc2o1
inactive: SR 16.2 µM | OVCAR-8 23.2 µM | UACC-257 > 49.9 µM | NCI-H226 22.5 µM | SK-MEL-28 22.6 µM | OVCAR-3 15.3 µM | SN12C 22.6 µM | 786-0 18.6 µM | SNB-19 19.7 µM | UO-31 30.9 µM | T47D 3.17 µM | SK-OV-3 25.6 µM | RPMI-8226 > 38.8 µM | Hs-578T 21.4 µM | IGROV-1 12.7 µM | SK-MEL-2 20.6 µM | HCC 2998 61.1 µM | MDA-MB-231 16.8 µM | CAKI-1 17.1 µM | MCF7 1.26 µM
